Paper PMC9219824, “Antiplasmodial Cyclodecapeptides from Tyrothricin Share a Target with Chloroquine” (Antibiotics, 2022)
Read-outs that look alike come from different tables or passages of the source. Square brackets hold non-standard residues; d marks the D form. Peptide text beside a SMILES is read from it. Orn = NCCC[C@H](N)C(=O)O

Assays:
human erythrocytes = assay: Hemolytic activity; type: cell-based; conditions: 2% hematocrit, 1 h at 37 °C, ± SEM
Procedure: To determine the hemolytic activity of the peptides, the duplicate 96-well plates with samples added to 90 μL 2% hematocrit per well were incubated for one hour at 37 °C and centrifuged using a swing-out rotor at 200× g for 3 min. The supernatant was diluted 1:8 in analytical quality water in separate 96-well plates and after mixing, the absorbance of the suspension was determined at 405 nm.
(§1) The data obtained from spectrophotometric measurement of the plates following the lactate dehydrogenase (Malstat) assay were converted to percentage growth inhibition using the data analysis method described by Rautenbach et al.. The background was obtained from control wells in which the parasites were killed with 100 µM GS while total growth was from the wells that were not submitted to peptides. The background for the hemolysis evaluation was from wells in which the uninfected erythrocytes were lysed using 100 µM GS while growth control was from the wells with uninfected erythrocytes that received no peptides. The percentage COS-1 cell death (CellTiter Blue™ assay) was similarly calculated from absorbance values. All the dose–response assay data were evaluated using GraphPad Prism 4.03 (GraphPad Software, San Diego, CA, USA) followed by non-linear regression and sigmoidal curves were fitted (having variable slope and a constant difference of 100 between the top and bottom plateau). Following calculation of the 50% P. falciparum inhibitory concentration (IC50), 50% hemolytic concentration (HC50) and 50% lethal concentration (LC50) for COS-1 cells.

[1] = Toxicity to COS-1 cells, CellTiter Blue viability; type: cell-based; conditions: 24 h, resazurin (CellTiter Blue), read-out: Toxicity LC50, COS Cells
Procedure: COS-1 cells were cultured in DMEM containing 0.9 g/L glucose, 0.12% NaHCO3, 10% fetal calf serum and 1% penicillin–streptomycin at 37 °C and under an atmosphere of 5% CO2 [95]. Twenty hours before the assay, the cells were transferred to 96-well plates at a density of 1.5 × 10^4 cells/well. The peptides from the dilution series were added to each well and incubated for 24 h. The cell viability was measured by adding 20 μL/well resazurin reagent (CellTiter Blue™), followed by four hours incubation at room temperature in the dark and measurement of the absorbance at 560 nm and 600 nm in the BioRad microplate reader.
as §1

CQS P. falciparum 3D7 = assay: microbe, parasite or virus in culture; type: cell-based, Plasmodium falciparum
Procedure: (§2) The antimalarial assays were carried out according to the method of Nkhoma et al.. […] On the day of the assay, the parasitemia was determined following observation by light microscopy after Giemsa staining of a thin blood smear from the culture. The cultures at young trophozoite stage were diluted to 2% parasitemia and 2% hematocrit by addition of fresh RPMI medium and uninfected erythrocytes. This culture suspension was distributed in 96-well culture plates at 90 µL/well. […] Peptide solvent and medium (10 µL/well) was used as sterility control and in growth control and 10 μL 1.0 mM GS was used as positive control. Assays were carried out in at least three biological repeats each consisting of three technical repeats to ascertain reproducibility.
(§3) The culture suspension was frozen away at −20 °C until determination of the residual lactate dehydrogenase activity of the parasites by the Malstat assay, as adapted from Gomez et al..
(§4) For the Malstat assay, the plates were transferred to −80 °C for 1 h following overnight storage at −20 °C to ensure that all the suspensions in each well of the 96-well plate were frozen. The plates were then thawed at room temperature. The Malstat reagent consisted of 200 μL Triton X-100, 2 g L-lactic acid (substrate), 0.66 g Tris-HCl buffer and 0.011 g of 3-acetylpyridine adenine dinucleotide (APAD) (coenzyme for parasite lactate dehydrogenase) in 100 mL analytical quality water set to a pH of 9.0 [93]. […] A 15 µL aliquot of the thawed and properly mixed suspension from the assay plates was added to 100 µL of the Malstat reagent, followed by addition of 25 µL of the NBT/PES solution. The reaction mixtures were then incubated at room temperature in the dark for 30 min followed by spectrophotometric measurement of the absorbance of the reduced APAD at 620 nm using a Model 680 Microplate reader from BioRad.
(§5) The data obtained from spectrophotometric measurement of the plates following the lactate dehydrogenase (Malstat) assay were converted to percentage growth inhibition using the data analysis method described by Rautenbach et al.. The background was obtained from control wells in which the parasites were killed with 100 µM GS while total growth was from the wells that were not submitted to peptides. […] The percentage COS-1 cell death (CellTiter Blue™ assay) was similarly calculated from absorbance values.

CQR P. falciparum Dd2 = assay: microbe, parasite or virus in culture; type: cell-based, Plasmodium falciparum; conditions: for IC50: read-out: IC50, CQR P. falciparum Dd2; for Resistance Index IC50Dd2/IC503D7: first value of cell; for Resistance Index IC50Dd2/IC50D10: second value of cell
Procedure: as §2, §3, §4, §5

CQI P. falciparum D10 = assay: microbe, parasite or virus in culture; type: cell-based, Plasmodium falciparum; conditions: for IC50: 48 h, Malstat, ± SEM
Procedure: The antimalarial assays were carried out according to the method of Nkhoma et al.. Once the cultures reached a parasitemia of 5–15%, they were synchronized four days prior to the day of the assay as described above which allowed the cultures to recover from the stress caused by the D-sorbitol. On the day of the assay, the parasitemia was determined following observation by light microscopy after Giemsa staining of a thin blood smear from the culture. The cultures at young trophozoite stage were diluted to 2% parasitemia and 2% hematocrit by addition of fresh RPMI medium and uninfected erythrocytes. This culture suspension was distributed in 96-well culture plates at 90 µL/well. The peptides and CQ diluted in culture medium lacking albumax II were added to the cultures in triplicate at 10 µL/well to give a total volume of 100 µL/well. Peptide solvent and medium (10 µL/well) was used as sterility control and in growth control and 10 μL 1.0 mM GS was used as positive control. Assays were carried out in at least three biological repeats each consisting of three technical repeats to ascertain reproducibility.
For the activity determination against parasites, plates were incubated at 37 °C for 48 h under an atmosphere of 3% CO2, 4% O2 and 93% N2. The culture suspension was frozen away at −20 °C until determination of the residual lactate dehydrogenase activity of the parasites by the Malstat assay, as adapted from Gomez et al..
For the Malstat assay, the plates were transferred to −80 °C for 1 h following overnight storage at −20 °C to ensure that all the suspensions in each well of the 96-well plate were frozen. The plates were then thawed at room temperature. The Malstat reagent consisted of 200 μL Triton X-100, 2 g L-lactic acid (substrate), 0.66 g Tris-HCl buffer and 0.011 g of 3-acetylpyridine adenine dinucleotide (APAD) (coenzyme for parasite lactate dehydrogenase) in 100 mL analytical quality water set to a pH of 9.0 [93]. The lactate dehydrogenase reaction was initiated by addition of a second solution, NBT/PES solution composed of 1.96 mM nitro blue tetrazolium (NBT) and 0.24 mM phenazine ethosulfate (PES) which was always protected from light. A 15 µL aliquot of the thawed and properly mixed suspension from the assay plates was added to 100 µL of the Malstat reagent, followed by addition of 25 µL of the NBT/PES solution. The reaction mixtures were then incubated at room temperature in the dark for 30 min followed by spectrophotometric measurement of the absorbance of the reduced APAD at 620 nm using a Model 680 Microplate reader from BioRad.
as §1

In the case of CC(C)C[C@@H]1NC(=O)[C@H](CCCN)NC(=O)[C@H](C(C)C)NC(=O)[C@@H]2CCCN2C(=O)[C@@H](Cc2ccccc2)NC(=O)[C@H](CC(C)C)NC(=O)[C@H](CCCN)NC(=O)[C@H](C(C)C)NC(=O)[C@@H]2CCCN2C(=O)[C@@H](Cc2ccccc2)NC1=O [GS, gramicidin S, reference compound] (cyclo(V[Orn]L[dF]PV[Orn]L[dF]P)), the “HC50, Erythrocytes” value (human erythrocytes) is reported as 6.2 ± 0.4 (9) μM, the CC50 [1] is reported as 9000 nM and the IC50 (CQS P. falciparum 3D7; CQS 3D7, 48 h) is reported as 1450 ± 151 nM. The IC50 (CQR P. falciparum Dd2; 48 h, Malstat, ± SEM) was 1860 ± 160 nM, the “Resistance Index IC50Dd2/IC503D7” value (CQR P. falciparum Dd2) was 1.3; 1.3 and the “Resistance Index IC50Dd2/IC50D10” value (CQR P. falciparum Dd2) was 1.3; 1.3. The IC50 (CQI P. falciparum D10) was 1400 ± 86 nM and the “Selectivity Index IC50D10/IC50 (COS cells)” value (CQI P. falciparum D10; second value of cell) was 6.

With CCN(CC)CCCC(C)Nc1ccnc2cc(Cl)ccc12 (stereo not shown) [CQ, chloroquine] the IC50 (CQS P. falciparum 3D7; Plasmodium falciparum, 3D7, 48 h, read-out: IC50, CQS P. falciparum 3D7) was 17 ± 5 nM, the IC50 (CQR P. falciparum Dd2; Plasmodium falciparum, DD2, 48 h) was 277 ± 18 nM and the “Resistance Index IC50Dd2/IC503D7” value (CQR P. falciparum Dd2) was 16. The “Resistance Index IC50Dd2/IC50D10” value (CQR P. falciparum Dd2) was 7 and the IC50 (CQI P. falciparum D10; Plasmodium falciparum, D10) was 40 ± 3 nM.
